Data from ChEMBL document CHEMBL1201862, “PubChem BioAssay data set” (2004).
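Cells were grown in 96-well plates and exposed to each compound for 48 hours at five concentrations; endpoints were interpolated linearly between bracketing concentrations, or set to the highest concentration if not reached. Here, GI50 denotes the concentration required for 50% inhibition of growth.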 Active and inactive are the calls of the source. Cut-off read from the data, not from the text of the source: active = GI50 up to about 1.1 µM and inactive = higher.

Legend:
Experiment in all cases: NCI-60 cell line screen, 48 h
786-0 = tested on: 786-0
BT-549 = tested on: BT-549
CAKI-1 = tested on: CAKI-1
COLO 205 = tested on: COLO 205
EKVX = tested on: EKVX
HL-60 = tested on: HL-60
KM12 = tested on: KM12
M14 = tested on: M14
MCF7 = tested on: MCF7
MDA-N = tested on: MDA-N
MOLT-4 = tested on: MOLT-4
OVCAR-3 = tested on: OVCAR-3
OVCAR-5 = tested on: OVCAR-5
OVCAR-8 = tested on: OVCAR-8
SF-295 = tested on: SF-295
SK-MEL-2 = tested on: SK-MEL-2
SNB-19 = tested on: SNB-19
SW-620 = tested on: SW-620
A498 = tested on: A498

SMILES	GI50 (786-0)	GI50 (BT-549)	GI50 (CAKI-1)	GI50 (COLO 205)	GI50 (EKVX)	GI50 (HL-60)	GI50 (KM12)	GI50 (M14)	GI50 (MCF7)	GI50 (MDA-N)	GI50 (MOLT-4)	GI50 (OVCAR-3)	GI50 (OVCAR-5)	GI50 (OVCAR-8)	GI50 (SF-295)	GI50 (SK-MEL-2)	GI50 (SNB-19)	GI50 (SW-620)	GI50 (A498)
CC1(C)CC(=O)C(=CNC(=O)c2ccncc2)C(=O)C1	> 100 µM (inactive)	> 100 µM (inactive)	> 100 µM (inactive)	> 100 µM (inactive)	> 100 µM (inactive)	71.3 µM (inactive)	> 100 µM (inactive)	> 100 µM (inactive)	> 100 µM (inactive)	> 100 µM (inactive)	> 100 µM (inactive)	> 100 µM (inactive)	> 100 µM (inactive)	> 100 µM (inactive)	> 100 µM (inactive)	> 100 µM (inactive)	> 100 µM (inactive)	> 100 µM (inactive)	–
COc1cc2c(cc1C1COc3cc4occc4cc3C1=O)OCO2 (configuration not stated)	> 100 µM (inactive)	> 100 µM (inactive)	67 µM (inactive)	> 100 µM (inactive)	87.3 µM (inactive)	–	> 100 µM (inactive)	> 100 µM (inactive)	17.4 µM (inactive)	> 100 µM (inactive)	4.05 µM (inactive)	> 100 µM (inactive)	> 100 µM (inactive)	21.1 µM (inactive)	53.8 µM (inactive)	> 100 µM (inactive)	30.1 µM (inactive)	> 100 µM (inactive)	31.8 µM (inactive)
COc1cc(NP(=O)(Oc2ccccc2)Oc2ccccc2)ccc1Nc1c2ccccc2nc2c1[nH]c1ccccc12	0.278 µM (active)	5.51 µM (inactive)	0.261 µM (active)	2.81 µM (inactive)	9.71 µM (inactive)	–	2.62 µM (inactive)	0.891 µM (active)	0.092 µM (active)	2.77 µM (inactive)	0.0147 µM (active)	2.08 µM (inactive)	10.5 µM (inactive)	1.23 µM (inactive)	0.344 µM (active)	7.24 µM (inactive)	0.755 µM (active)	1.22 µM (inactive)	0.269 µM (active)
O=C(O)/C=C/C(=O)N1Cc2cc3ccccc3nc2C1	> 100 µM (inactive)	> 100 µM (inactive)	> 100 µM (inactive)	> 100 µM (inactive)	> 100 µM (inactive)	> 100 µM (inactive)	> 100 µM (inactive)	> 100 µM (inactive)	> 100 µM (inactive)	> 100 µM (inactive)	> 100 µM (inactive)	> 100 µM (inactive)	> 100 µM (inactive)	> 100 µM (inactive)	> 100 µM (inactive)	> 100 µM (inactive)	> 100 µM (inactive)	> 100 µM (inactive)	–
Cc1n[nH]c(=O)n1/N=C/c1cccc(Cl)c1	> 100 µM (inactive)	47.2 µM (inactive)	> 100 µM (inactive)	> 100 µM (inactive)	31 µM (inactive)	–	> 100 µM (inactive)	> 100 µM (inactive)	> 100 µM (inactive)	> 100 µM (inactive)	49.3 µM (inactive)	> 100 µM (inactive)	> 100 µM (inactive)	64.7 µM (inactive)	> 100 µM (inactive)	> 100 µM (inactive)	> 100 µM (inactive)	> 100 µM (inactive)	40.8 µM (inactive)
CC(=O)N1C(OC(C)C)CC(C)N1c1ccccc1 (configuration not stated)	> 10 µM (inactive)	> 10 µM (inactive)	> 10 µM (inactive)	> 10 µM (inactive)	> 10 µM (inactive)	> 10 µM (inactive)	–	> 10 µM (inactive)	> 10 µM (inactive)	> 10 µM (inactive)	> 10 µM (inactive)	> 10 µM (inactive)	> 10 µM (inactive)	> 10 µM (inactive)	> 10 µM (inactive)	> 10 µM (inactive)	> 10 µM (inactive)	> 10 µM (inactive)	–
CCCCCC(=O)N[C@@H](c1ccccc1)C(O)C(=O)OC1C[C@@]2(O)C(OC(=O)c3ccccc3)C3[C@](C)(C(=O)[C@H](O)C(=C1C)C2(C)C)C(OC1OCC(O)C(O)C1O)C[C@H]1OC[C@@]31OC(C)=O (some centres not stated)	4.93 µM (inactive)	2.62 µM (inactive)	–	0.665 µM (active)	> 64.7 µM (inactive)	0.542 µM (active)	1.21 µM (inactive)	2.32 µM (inactive)	1.02 µM (active)	0.078 µM (active)	2.45 µM (inactive)	0.706 µM (active)	> 20.7 µM (inactive)	6.35 µM (inactive)	21.2 µM (inactive)	–	4.91 µM (inactive)	16.1 µM (inactive)	25.5 µM (inactive)
O=C1O/C(=C\C=C\CO)C=C1/C=C/CO [LISSOCLINOLIDE]	12.5 µM (inactive)	20 µM (inactive)	14.5 µM (inactive)	2.23 µM (inactive)	15.3 µM (inactive)	29.3 µM (inactive)	36.9 µM (inactive)	20.2 µM (inactive)	36.3 µM (inactive)	21.3 µM (inactive)	50.6 µM (inactive)	24.2 µM (inactive)	20 µM (inactive)	19.2 µM (inactive)	39 µM (inactive)	19.3 µM (inactive)	23.5 µM (inactive)	18.2 µM (inactive)	–
